# Reference: US12520839B2, “Methods and compositions for cryopreservation of cell therapies” (The George Washington University, priority 2020, dated 2026)
# What was measured:
# Type in all cases: cell-based
# NK cells [1] = experiment: CD16 expression on NK cells after cryopreservation and thawing
# Experimental: (§1) A freezing medium (FM) was prepared having 50% RPMI, 40% FBS, 10% DMSO. FM was supplemented with the ADAM17 inhibitor TAPI-2 at amounts indicated in this example. Additionally, a wash medium (WM) was prepared having 50% RPMI, 40% FBS, 10% DMSO and supplemented with TAPI-2 at amounts indicated in this example.
# (§2) Experiments were generally performed using in-vitro NK cells and T cells that were isolated and expanded for 14 days in culture. On day 14 of the culture, the NK cells and T cells were cryopreserved the using FM with or without TAPI-2. Then, cells were thawed using WM with or without TAPI-2.
# CD16 expression is maintained in NK cells in presence of TAPI-2.
# T cells = experiment: CD62L expression on T cells after cryopreservation and thawing
# Experimental: as §1, §2
# CD62L expression is maintained in T cells in presence of TAPI-2.
# Next, T cells were cryopreserved in freezing media without TAPI-2.
# NK cells and T cells = experiment: Cell viability after thawing, trypan blue exclusion; settings: TAPI-2 added to freezing medium; immediately and 120 minutes after thawing; FIGS. 6A-6B
# Experimental: (§3) Polyclonally activated T cells and expanded NK cells were expanded for 14 and 12 days respectively and cryopreserved using freezing media (FM) with or without TAPI-2 prepared as described in Example 1. Cryovials were then stored in liquid nitrogen tank.
# Cryovials were thawed in water bath with cell wash performed, cell recovery (FIGS. 5A-5B) and viability (FIGS. 6A-6B) was assessed immediately after thawing. Cell viability was also assessed 120 minutes after thawing (FIGS. 6A-6B). Trypan blue exclusion method was use to evaluate cell viability.
# NK cells [2] = experiment: NK-cell phenotype by flow cytometry after thawing
# Experimental: as §3
# Flow analysis was performed 120 minutes after thawing (except for NKG2D which expression was analyzed immediately after thawing).
structure (smiles),measurement,setting,value
CC(C)C[C@H](CC(=O)NO)C(=O)N[C@H](C(=O)N[C@@H](C)C(=O)NCCN)C(C)(C)C [TAPI-2],CD16 expression after thawing,"NK cells [1]; FM containing 50 μM TAPI-2, thawed and not washed, immediately after thawing and 2 hours thereafter, FIG. 1",able to maintain CD16 expression
same,CD16 expression versus level prior to cryopreservation,"NK cells [1]; NK cells cryopreserved in FM containing TAPI-2, FIG. 1",retained expression of CD16 to the same level as prior cryopreservation
same,CD16 expression after washing with wash medium containing TAPI-2,"NK cells [1]; frozen in freezing media without TAPI-2, wash media with 10 μM TAPI-2 (Thaw+), FIG. 2",showed CD16 expression
same,CD62L expression after thawing,"T cells; FM containing 50 μM TAPI-2, thawed and not washed, immediately after thawing and 2 hours thereafter, FIG. 3",able to maintain CD62L expression
same,CD62L expression versus level before cryopreservation,"T cells; T cells cryopreserved in FM containing TAPI-2, FIG. 3",retained expression of CD62L to a level that was equal to that before cells were subjected to cryopreservation
same,CD62L expression after washing with wash medium containing TAPI-2,"T cells; frozen in freezing media without TAPI-2, wash media with 10 μM TAPI-2 (Thaw+), FIG. 4",showed CD62L expression
same,cell viability,NK cells and T cells,did not negatively affect
same,phenotype,"NK cells [2]; TAPI-2 added to freezing medium, summary statement",did not negatively affect
same,NK-cell phenotype,"NK cells [2]; TAPI-2 in the freezing media, flow analysis 120 minutes after thawing (NKG2D immediately after thawing), FIG. 7",not affected
